Source: US12233053B2, “Adenosine A3 receptor antagonists for treating aging skin and wounds” (ORADIN PHARMACEUTICAL LTD., priority 2021, dated 2025)

How the values were obtained:
B16-F1 melanocytes [1] = system: B16-F1 melanocytes
Description: HaCaT cells or 3T3 cells (2×10^4) were incubated in 96-well Elisa plates in DMEM containing 10% fetal calf serum (FCS) in the presence of increasing concentrations of MRS-1523 for 24 hours. Cell viability was then measured using Alamar blue (AB) assay according to the manufacturer's instructions. Briefly, the cells were rinsed with PBS, and 0.2 ml of an AB solution (10% (v/v) of AB dye in DMEM) were added to each well. After incubation of 3 hours, AB fluorescence was quantified at the excitation and emission wavelengths of 540 and 595 nm, respectively, using a Tecan Genios microplate reader. The results are given as mean±SD. Statistical significance was determined by Student T-Test.

3T3 fibroblast cells [2] = assay: Scratch assay (gap size, cell migration), fibroblasts; assay type: cell-based; conditions: 24 hours
Description: (§1) Keratinocyte HaCaT cells or 3T3 fibroblast cells (10^6 cells) were grown in 35 mm petri dishes in DMEM containing 10% FCS overnight. Thereafter, the cell cultures were scratched using 20 μl pipet tip in the middle of the culture plate, the cells were washed three times, and then MRS-1523 (at concentrations of 10 nM to 10 μM in DMEM containing 10% FCS) was added to each scratched plate and incubated with the cells for 24 hours. The gap size in plates of MRS-1523 treated cells was compared to the gap size in plates of control cells which were scratched and incubated for 24 hours in DMEM containing 10% FCS in the absence of MRS-1523. The results are presented as mean±SD. Statistical significance was determined by Student T-test.

skin explants = assay: Fibroblast and collagen staining of skin explants (H&E, Fontana-Masson); set-up: species or system human; conditions: 10 μM, 12 days
Description: Skin explants were treated with MRS-1523 (10 μM) for 12 days. Thereafter, the skin explants were stained with hematoxylin and eosin (H&E; FIGS. 5A and 5C) or with Fontana-Masson (FIGS. 5B and 5D).

3T3 fibroblast cells [3] = assay: Collagen-1 and F-actin expression in fibroblasts (confocal fluorescence); assay type: cell-based; conditions: 10 μM, 24 hours
Description: The effect of MRS-1523 on collagen level in fibroblasts in culture was next examined. 3T3-fibroblast cells were grown in DMEM containing 10% FCS for 24 hours, and then were treated with 10 μM MRS-1523 for additional 24 hours. Thereafter, the presence of collagen or F-actin was evaluated as follows: the cells were incubated with rabbit anti-collagen-1 antibodies, and then with Alexa Fluor® 488-conjugated goat anti-rabbit antibodies to detect collagen-1 (green staining). Detection of F-actin was performed by F-actin-Phalloidin-staining (red staining). Cell nuclei were stained with 4′,6-diamidino-2-phenylindole (DAPI; blue staining).

HaCaT keratinocyte cells [4] = assay: Scratch assay (gap size, cell migration), keratinocytes; assay type: cell-based, human; conditions: 24 hours
Description: as §1

HaCaT cells = assay: Differentiation markers PAR-2 and Filaggrin in keratinocytes (immunostaining); assay type: cell-based, human; conditions: 10 μM, 24 hours
Description: HaCaT cells were grown in DMEM containing 10% FCS for 24 hours. The cells were then treated with 10 μM MRS-1523 for 24 hours, washed with PBS, and fixed with 4% paraformaldehyde for 1 hour. Fixed cells were washed and incubated with the following primary antibodies (Sigma): anti-PAR-2 (Clone SAM11 produced in mouse, reactive to mouse and human) followed by secondary antibodies, anti-mouse antibodies conjugated to FITC, or anti-Filaggrin (FLG; produced in rabbit) followed by secondary antibodies, anti-rabbit antibodies conjugated to Alexa Fluor® 488.

HaCaT keratinocyte cells [5] = conditions: 10 μM or lower concentrations, 24 hours
Description: (§2) Cell viability was then measured using Alamar blue (AB) assay according to the manufacturer's instructions. Briefly, the cells were rinsed with PBS, and 0.2 ml of an AB solution (10% (v/v) of AB dye in DMEM) were added to each well. After incubation of 3 hours, AB fluorescence was quantified at the excitation and emission wavelengths of 540 and 595 nm, respectively, using a Tecan Genios microplate reader. The results are given as mean±SD. Statistical significance was determined by Student T-Test.

B16-F1 melanocytes [6] = assay: Scratch assay (gap size, cell migration), melanocytes; assay type: cell-based; conditions: 10 μM, 24 hours, B16-F1, FIG. 4E
Description: FIGS. 4A-E show bar graphs of the gap size in a scratch assay of different cell types in culture. FIGS. 4A-B show bar graphs of the gap size of HaCaT keratinocyte cells (A) and 3T3 fibroblast cells (B) 24 hours after treatment with increasing concentrations of MRS-1523 in the scratch assay. FIGS. 4C-E show bar graphs of the gap size of HaCAT cells (FIG. 4C), 3T3 fibroblasts (FIG. 4D), and B16-F1 melanocytes (FIG. 4E) after 24-hour treatment with 10 μM MRS-1523 in the scratch assay. *p<0.05, **p<0.01 by Student T-test.
as §1

3T3 fibroblast cells [7] = system: 3T3 fibroblast cells
Description: as §2

`CCCOC(=O)c1c(-c2ccccc2)nc(CC)c(C(=O)SCC)c1CCC` [MRS-1523, 3-propyl-6-ethyl-5[(ethylthio)carbonyl]-2-phenyl-4-propyl-3-pyridine carboxylate] was tested, and the “toxic effect on melanocyte cells” value (B16-F1 melanocytes [1]) was “did not induce any toxic effect”, the melanocyte proliferation (B16-F1 melanocytes [1]; 24 hours, B16-F1) was “promoted their proliferation” and the “gap size vs control cells (cell migration)” value (3T3 fibroblast cells [2]; 0.01 μM-10 μM, 3T3, FIG. 4B) was “significant reduction in the gap size”. For the same compound, the cell migration (3T3 fibroblast cells [2]; 10 μM, 3T3, FIG. 4D) was “significantly stimulated”, the “collagen levels in the dermis vs untreated skin explants” value (skin explants) was “increase” and the “fibroblast levels in the dermis vs untreated skin explants” value (skin explants) was “increase”. The “expression of F-actin vs control cells” value (3T3 fibroblast cells [3]) was “not increased”, the “expression of collagen-1 vs control untreated fibroblasts” value (3T3 fibroblast cells [3]) was “increased expression” and the “gap size vs control cells (cell migration)” value (HaCaT keratinocyte cells [4]; 0.01 μM-10 μM, FIG. 4A) was “significant reduction in the gap size”. For the same compound, the cell migration (HaCaT keratinocyte cells [4]; 10 μM, FIG. 4C) was “significantly stimulated”, the “expression of Filaggrin (FLG) vs control untreated cells” value (HaCaT cells) was “decrease” and the “expression of PAR-2 vs control untreated cells” value (HaCaT cells) was “decrease”. The “stimulation of keratinocyte proliferation” value (HaCaT keratinocyte cells [5]) was 8-16%, the melanocytes migration (B16-F1 melanocytes [6]) was “attenuated” and the “toxic effect on fibroblasts” value (3T3 fibroblast cells [7]) was “did not induce any toxic effect”. The fibroblast proliferation (3T3 fibroblast cells [7]; 10 μM, 24 hours, 3T3) was “slight but significant increase”.
